Results published in patent publication US20230131899A1, “INHIBITORS OF MICROBIALLY INDUCED AMYLOID” (Axial Therapeutics, Inc., priority 2020, published 2023).
Like-named read-outs stand apart in the source and are kept apart here.

Target: T1, human α-synuclein (Homo sapiens, UniProt P37840)
T1 construct: the full-length gene for untagged human α-synuclein was inserted; made in house; host or cells: E. coli BL21(DE3), plasmid derived from pT7 or pET11a
Assay: Cell-free Thioflavin T assay of α-synuclein aggregation (αSyn ThT Assay)
Type: biochemical
Details: αSyn 50 μM
Summary of the method: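 Untagged full-length human α-synuclein from E. coli, 50 μM, with 20-40 μM ThT, 1% DMSO, compound at 20-100 μM and a glass bead, 37° C. with shaking. Fluorescence (ex 438/em 495 nm) read hourly to 73 h. Compound-only background subtracted and values normalised to vehicle at 36-72 h or final timepoint, giving % inhibition.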

[1] = class symbol, compounds 100 μM, read-out: αSyn ThT Assay % inhibition, activity range
[2] = mean percent inhibition relative to DMSO control, compounds 100 μM, read-out: αSyn ThT Assay % inhibition
[3] = mean % inhibition of αSyn aggregation relative to DMSO control, compounds at 100 μM, read-out: αSyn ThT Assay % Inhibition
[4] = compounds at 100 μM, class symbol, read-out: αSyn ThT Assay % Inhibition (activity range)

Row | Structure (SMILES) | inhibition at 100 µM [1] | inhibition at 100 µM [2] | inhibition at 100 µM [3] | inhibition at 100 µM [4]
1 | CC(C)N1CC(C(=O)O)n2c(c(-c3cccc(C(F)(F)F)c3)c(Cc3cccc4ccccc34)c(C(N)=O)c2=O)S1(=O)=O (centres unmarked) [Compound 175, 7-carbamoyl-2-isopropyl-8-(naphthalen-1-ylmethyl)-6-oxo-9-(3-(trifluoromethyl)phenyl)-3,4-dihydro-2H,6H-pyrido[1,2-e][1,2,5]thiadiazine-4-carboxylic acid 1,1-dioxide] | > 60% | 98% | – | –
2 | O=C(O)C1CN(C[C@H](O)[C@@H](O)[C@H](O)[C@H](O)CO)S(=O)(=O)c2c(-c3cccc(C(F)(F)F)c3)c(Cc3cccc4ccccc34)cc(=O)n21 (mixture of isomers) [Compound 066, 8-(naphthalen-1-ylmethyl)-6-oxo-2-((2S,3R,4R,5R)-2,3,4,5,6-pentahydroxyhexyl)-9-(3-(trifluoromethyl)phenyl)-3,4-dihydro-2H,6H-pyrido[1,2-e][1,2,5]thiadiazine-4-carboxylic acid 1,1-dioxide] | – | – | 13% | 11 to 30%
3 | O=C(O)[C@H]1CN(Cc2ccccc2)c2c(-c3cccc(C(F)(F)F)c3)c(Cc3cccc4ccccc34)c(Cl)c(=O)n21 (single isomer, unassigned) [Compound 004b] | 31 to 60% | 44% | – | –
4 | CNC(=O)C1CN(C)S(=O)(=O)c2c(-c3cccc(C(F)(F)F)c3)c(Cc3cccc4ccccc34)cc(=O)n21 (centres unmarked) [Compound 031, N,2-dimethyl-8-(naphthalen-1-ylmethyl)-6-oxo-9-(3-(trifluoromethyl)phenyl)-3,4-dihydro-2H,6H-pyrido[1,2-e][1,2,5]thiadiazine-4-carboxamide 1,1-dioxide] | – | – | 18% | 11 to 30%
5 | CN(C)C(=O)c1c(Cc2cccc3ccccc23)c(-c2cccc(C(F)(F)F)c2)c2n(c1=O)C(C(=O)O)CN(C)S2(=O)=O (centres unmarked) [Compound 173, 7-(dimethylcarbamoyl)-2-methyl-8-(naphthalen-1-ylmethyl)-6-oxo-9-(3-(trifluoromethyl)phenyl)-3,4-dihydro-2H,6H-pyrido[1,2-e] [1,2,5] thiadiazine-4-carboxylic acid 1,1-dioxide] | > 60% | 86% | – | –
6 | O=C(O)C1CN(CCc2ccccc2)c2c(-c3cccc(C(F)(F)F)c3)c(Cc3cccc4ccccc34)c(Cl)c(=O)n21 (centres unmarked) [Compound 178, 6-chloro-7-(naphthalen-1-ylmethyl)-5-oxo-1-phenethyl-8-(3-(trifluoromethyl)phenyl)-1,2,3,5-tetrahydroimidazo[1,2-a]pyridine-3-carboxylic acid] | 31 to 60% | 43% | – | –
7 | O=C(O)C1CSc2c(-c3cccc(C(F)(F)F)c3)c(Cc3cccc4ccccc34)cc(=S)n21 (centres unmarked) [Compound 054, 7-(naphthalen-1-ylmethyl)-5-thioxo-8-(3-(trifluoromethyl)phenyl)-2,3-dihydro-5H-thiazolo[3,2-a]pyridine-3-carboxylic acid] | – | – | 39% | 31 to 60%
8 | CCCN1CC(C(=O)O)n2c(c(-c3cccc(C(F)(F)F)c3)c(Cc3cccc4ccccc34)c(Cl)c2=O)S1(=O)=O (centres unmarked) [Compound 142, 7-chloro-8-(naphthalen-1-ylmethyl)-6-oxo-2-propyl-9-(3-(trifluoromethyl)phenyl)-3,4-dihydro-2H,6H-pyrido[1,2-e][1,2,5]thiadiazine-4-carboxylic acid 1,1-dioxide] | 31 to 60% | 40% | – | –
9 | CN1CC(C(=O)O)n2c(c(-c3cccc(C(F)(F)F)c3)c(Cc3cccc4ccccc34)c(NC3CCCC3)c2=O)S1(=O)=O (centres unmarked) [Compound 070, 7-(cyclopentylamino)-2-methyl-8-(naphthalen-1-ylmethyl)-6-oxo-9-(3-(trifluoromethyl)phenyl)-3,4-dihydro-2H,6H-pyrido[1,2-e][1,2,5]thiadiazine-4-carboxylic acid 1,1-dioxide] | – | – | 53% | 31 to 60%
10 | CCCN1CC(C(=O)O)n2c1c(-c1cccc(C(F)(F)F)c1)c(Cc1cccc3ccccc13)c(Cl)c2=O (centres unmarked) [Compound 162, 6-chloro-7-(naphthalen-1-ylmethyl)-5-oxo-1-propyl-8-(3-(trifluoromethyl)phenyl)-1,2,3,5-tetrahydroimidazo[1,2-a]pyridine-3-carboxylic acid] | > 60% | 67% | – | –
11 | O=C(O)C1CN(C[C@H](O)CO)S(=O)(=O)c2c(-c3cccc(C(F)(F)F)c3)c(Cc3cccc4ccccc34)cc(=O)n21 (stereo partly drawn) [Compound 065a, 2-((S)-2,3-dihydroxypropyl)-8-(naphthalen-1-ylmethyl)-6-oxo-9-(3-(trifluoromethyl)phenyl)-3,4-dihydro-2H,6H-pyrido[1,2-e][1,2,5]thiadiazine-4-carboxylic acid 1,1-dioxide] | – | – | 32% | 31 to 60%
12 | CC(C)(C)c1ccc(Cc2c(-c3cccc(C(F)(F)F)c3)c3n(c(=O)c2Cl)C(C(=O)O)CN3Cc2ccccc2)cc1 (centres unmarked) [Compound 216, 1-benzyl-7-(4-(tert-butyl)benzyl)-6-chloro-5-oxo-8-(3-(trifluoromethyl)phenyl)-1,2,3,5-tetrahydroimidazo[1,2-a]pyridine-3-carboxylic acid] | 31 to 60% | 46% | – | –
13 | Cn1c(=O)c2c(nc(CCCCCCCN3CC(C(=O)O)n4c(c(-c5cccc(C(F)(F)F)c5)c(Cc5cccc6ccccc56)cc4=O)S3(=O)=O)n2C)n(C)c1=O (centres unmarked) [Compound 047, 8-(naphthalen-1-ylmethyl)-6-oxo-9-(3-(trifluoromethyl)phenyl)-2-(7-(1,3,7-trimethyl-2,6-dioxo-2,3,6,7-tetrahydro-1H-purin-8-yl)heptyl)-3,4-dihydro-2H,6H-pyrido[1,2-e][1,2,5]thiadiazine-4-carboxylic acid 1,1-dioxide] | – | – | 21% | 11 to 30%
14 | O=C(O)C1CN(Cc2ccccc2CO)c2c(-c3cccc(C(F)(F)F)c3)c(Cc3cccc4ccccc34)c(Cl)c(=O)n21 (centres unmarked) [Compound 181, 6-chloro-1-(2-(hydroxymethyl)benzyl)-7-(naphthalen-1-ylmethyl)-5-oxo-8-(3-(trifluoromethyl)phenyl)-1,2,3,5-tetrahydroimidazo[1,2-a]pyridine-3-carboxylic acid] | 31 to 60% | 31% | – | –
15 | O=C(O)C1CN(CCCCCCCN2CC(C(=O)O)n3c2c(-c2cccc(C(F)(F)F)c2)c(Cc2cccc4ccccc24)c(Cl)c3=O)c2c(-c3cccc(C(F)(F)F)c3)c(Cc3cccc4ccccc34)c(Cl)c(=O)n21 (centres unmarked) [Compound 188, 1,1′-(heptane-1,7-diyl)bis(6-chloro-7-(naphthalen-1-ylmethyl)-5-oxo-8-(3-(trifluoromethyl)phenyl)-1,2,3,5-tetrahydroimidazo[1,2-a]pyridine-3-carboxylic acid)] | > 60% | 62% | – | –
16 | N#Cc1cccc(CN2CC(C(=O)O)n3c2c(-c2cccc(C(F)(F)F)c2)c(Cc2cccc4ccccc24)c(Cl)c3=O)c1 (centres unmarked) [Compound 168, 6-chloro-1-(3-cyanobenzyl)-7-(naphthalen-1-ylmethyl)-5-oxo-8-(3-(trifluoromethyl)phenyl)-1,2,3,5-tetrahydroimidazo[1,2-a]pyridine-3-carboxylic acid] | 31 to 60% | 43% | – | –
